Assay results published in PubChem BioAssay AID179 (DTP/NCI, 2004).
Values joined by “and” are separate entries in the source; they are usually repeats but may differ in a detail not shown here. Equal entries are not always repeated. Active and inactive are the calls of the source.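 Rule for the calls: active = compounds giving half or more protection of infected cells from virus-caused growth loss, again on retest; inactive = the rest.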

System: CEM cells HIV-1 protection, formazan growth assay
Test: NCI AIDS Antiviral Assay
Details: for IC50: measured here: growth of uninfected CEM cells
Outline: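 Screen of anti-HIV-1 activity in human CEM cells using a formazan-based growth measurement at five drug concentrations. Hits with 50% or greater protection were repeated, and confirmation required reproducible complete protection.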

Structure (SMILES)	EC50	IC50	outcome
CC(C)(C)C(O)CC(O)(C(F)(F)F)C(F)(F)F (centres undefined)	> 200 µM	> 200 µM	
COc1ccccc1NC(=O)/C(=C\N1C(=O)CC(=O)NC1=S)C(C)=O	> 200 µM	> 200 µM	
O=C1C2CC3OC3CC2C(=O)N1CCCCCCN1C(=O)C2CC3OC3CC2C1=O (centres undefined)	> 200 µM	> 200 µM	
N#CC(C#N)=Cc1ccc(F)cc1	> 79.4 µM	> 79.4 µM	
COc1ccc2cc1Oc1ccc(cc1)C[C@@H]1c3cc(c(OC)cc3CCN1C)Oc1c(O)c(OC)cc3c1CCN(C)C3C2 (some centres undefined)			inactive
Cc1cc(Br)cc(C)c1NC(=O)C(=O)C(C(=O)c1ccncc1)C1OC(=O)c2ccccc21 (centres undefined)	> 339 µM	> 339 µM	
CC[n+]1c2ccc(C)cc2nc2c3ccccc3c(N)cc21	> 200 µM	1.02 µM	
COC(=O)C1=C(C)C(=O)C2(CCCCCC2C(=O)OC)C1 (centres undefined)	> 200 µM	> 200 µM	
COc1c(C)c(C/C=C(\C)CC/C=C(\C)CC/C=C(\C)CCC=C(C)C)c(OC)c2ccccc12	> 200 µM	107 µM	
CN(C(=O)Cc1ccccc1)n1cn[n+](CC(=O)OC(C)(C)C)c1	> 200 µM	> 200 µM	
NCC1OC(OC2C(N)CC(N)C(O)C2O)C(NC(=O)c2ccccc2)C(O)C1O (centres undefined)			inactive
COc1ccc2c(c1OC)Oc1c(OC)ccc3c1C(C2)N(C)C[C@@H]3O (some centres undefined)	> 251 µM	> 251 µM	
CC(=O)Oc1ccccc1C(=O)/C=C/c1ccccc1	> 132 µM	12 µM	
CCCc1ccc(OC2OC(CO)C(O)C(O)C2O)cc1 (centres undefined)	> 302 µM	> 302 µM and 85.1 µM	
CC(CN(C)C)C(=O)c1ccccc1 (centres undefined)	> 912 µM	55 µM	
CC(C)C(O)C(=O)C(Sc1ccccc1)C(C)C (centres undefined)	> 355 µM	240 µM	
Nc1nc(Cl)c(N=Nc2ccc(Cl)cc2)c(NCC2(CO)CCC2)n1	> 200 µM	> 200 µM	
CC(C)(C)N1C(=O)N=[N+](/C(=C(\c2ccccc2)n2nc([O-])n(C(C)(C)C)c2=O)c2ccccc2)C1=O	> 100 µM	> 100 µM	
CCOC(=O)CC1C(C(=O)OCC)=Cn2c([nH]c3cccc4cccc2c43)=C1C(=O)OCC (centres undefined)	> 200 µM	30.9 µM	
S=c1[nH]nc(CCCCCCCCc2n[nH]c(=S)o2)o1			inactive
COc1cccc(C2c3cc4c(cc3OC(Nc3ccccc3)C2C)OCO4)c1OC (centres undefined)	> 200 µM	2.95 µM	
Cc1cn(C2C[C@H](O)[C@]3(CO)C[C@H]23)c(=O)[nH]c1=O (some centres undefined)	> 100 µM	> 100 µM	
COC12C(COC(N)=O)C3=C(C(=O)C(C)=C(N4CCN(C)CC4)C3=O)N1CC1NC12 (centres undefined)	> 200 µM	110 µM	

Structure (SMILES)	EC50	IC50	outcome
O=C1CCCCC/C1=C\c1ccc([N+](=O)[O-])cc1	> 200 µM	25.7 µM	
CC1=C/C(=C2/N=C(N(C)C)SS2)C(C)=N1			inactive
CC(=O)OC1N(C(C)=O)C(SC23CC4CC(CC(C4)C2)C3)C(C)=CC1(C)OC(C)=O (centres undefined)	> 200 µM	126 µM	
C/C(=C\c1ccc(N(C)C)cc1)C(=O)O	> 66.1 µM	> 66.1 µM	
Cc1ccc(NC(=O)SCCC(=O)O)cc1NC(=O)SCCC(=O)O			inactive
O=[N+]([O-])c1ccc(/C=c2\sc3scc(-c4ccc([N+](=O)[O-])cc4)[n+]3\c2=C/c2ccc([N+](=O)[O-])cc2)cc1	> 200 µM	97.7 µM	
C/C(=N/NC(=S)N1CCCCCC1)c1cccc(/C(C)=N\NC(=S)N2CCCCCC2)n1	> 200 µM	3.63 µM	
CC1(C)CC(=O)C(=[N+]=[N-])C(=O)C1	> 200 µM	> 200 µM	
N=C(N)C1CN(CC=O)C(=O)NC1=O (centres undefined)	> 200 µM	> 200 µM	
C/C(CC(=O)Nc1cccc([N+](=O)[O-])c1)=N/NC(N)=S	> 447 µM	> 447 µM	
Oc1ccc(-c2nc(-c3cccnc3)c(-c3ccc(Cl)cc3)[nH]2)cc1O	> 200 µM	13.8 µM	
Cn1c(=O)c2ccccc2[n+]2c(-c3cccc([N+](=O)[O-])c3)csc12	> 200 µM	148 µM	
COC(=O)CCC12CCC(O1)c1ccccc12 (centres undefined)	> 200 µM	> 200 µM	
CC(=O)Nc1c(C(=O)O)[nH]c(=O)[nH]c1=O	> 200 µM	> 200 µM	
CN1C(=O)/C(=N\n2c(-c3ccccc3)nc3ccccc3c2=O)c2cc(Br)ccc21	> 200 µM	> 200 µM	
NC(=S)C(=S)N/C=C(/c1ccc(Cl)cc1)S(=O)(=O)Cc1ccc(Cl)cc1			inactive
Cc1ccc(Cc2nc(=S)[nH][nH]2)cc1	> 200 µM	120 µM	
O=C(Cc1nc2ccccc2o1)C(=O)Nc1cccc(C(F)(F)F)c1			inactive
Cn1c(=O)c(CC(C(=O)O)C(=O)O)nc2ccccc21	> 200 µM	> 200 µM	
O=S(=O)(c1ccccc1)c1cccc2c1NCCC2	21.9 µM	95.5 µM	
O=S1c2ccccc2S(=O)c2ccccc21 (centres undefined)	> 200 µM	> 200 µM	
Nc1cccnc1NCC1(CO)CCCC1	> 200 µM	> 200 µM	
COc1cc2ccc(=O)oc2cc1O	> 339 µM	55 µM	

Structure (SMILES)	EC50	IC50	outcome
N#CNC1=NC(N)C(c2nc3ccccc3[nH]2)=C(CCCC(=O)Nc2cccc([N+](=O)[O-])c2)N1 (centres undefined)	> 77.6 µM	> 77.6 µM	
O=[N+]([O-])c1ccccc1SCc1ccccc1	> 55 µM	50.1 µM	
COc1cc2c3c(c1OC)C(=O)C(=O)C1=C3N(CCC1)CC2			inactive
CN1CCN(CCSc2nnc(-c3ccc4ccccc4c3)c3ccccc23)CC1	> 219 µM	12.9 µM	
C(=N\Nc1nnc(-c2nnc(N/N=C/c3ccccc3)o2)o1)/c1ccccc1	> 200 µM	> 200 µM	
COC1N(C2CC(N=[N+]=[N-])C(CO)O2)C(=O)NC(=O)C1(C)Cl (centres undefined)	6.61 µM	891 µM	
CCOC(=O)N1CCN(c2ccc3ccc(N)nc3n2)CC1	> 200 µM	148 µM	
Cc1cc(S(=O)(=O)Nc2nc3ccccc3c(=O)n2N)c(S)cc1Cl	40.7 µM	77.6 µM	
N#CCCN(CCC#N)c1ccc(/C=C2/C=C(c3ccccc3)OC2=O)cc1	> 14.1 µM	> 14.1 µM	
C/C=C/C#CC#CC(O)C(/C=C/CCCO)OC1OC(CO)C(O)C(O)C1O (centres undefined)	> 158 µM	> 158 µM	
COc1ccc(/C=C2\C(=O)N(C(=O)c3ccc(NC(C)=O)cc3)N=C2C)cc1	> 19.1 µM	> 19.1 µM	
CC(C)=CCN1Cc2c(Cl)ccc3[nH]c(=S)n(c23)C[C@@H]1C	0.00224 µM	5.89 µM	
c1ccc(N2CC3CSc4c(ccc5ccccc45)C3=N2)cc1 (centres undefined)	> 200 µM	162 µM	
Cc1csc2c(=O)n(COCc3ccccc3)c(=O)[nH]c12	> 200 µM	> 200 µM	
CC(C)(C)OC(=O)NC1CCCC1C(=O)C1=CCCC1 (centres undefined)	> 200 µM	105 µM	
O=C(Nc1ccccn1)Nc1ccccn1	> 200 µM	107 µM	
C=CC1ON(C)CCc2cc(OC)c(OC)cc21 (centres undefined)	162 µM	> 200 µM	
COc1ccc2c(c1)OCC(O)(c1ccccc1)C2=O (centres undefined)	> 200 µM	155 µM	
CCOCNC=O	> 2400 µM	1480 µM	
CCC1CN(C(=O)c2ccccc2)C(Cc2c[nH]c3ccccc23)C(=O)C1CC(=O)OC (centres undefined)	> 200 µM	79.4 µM	
OCC(S)CS (centres undefined)	> 151 µM	72.4 µM	
O=c1cc(CBr)c2ccc(O)cc2o1	> 200 µM	102 µM	
CC1=Nc2c([nH]c(=S)[nH]c2=O)NC(c2ccc(Cl)c(Cl)c2)C1 (centres undefined)	> 7.76 µM	> 7.76 µM	

Structure (SMILES)	EC50	IC50	outcome
CCOC(=O)C(Cc1ccc2c(c1)CCC2)Cc1ccc2c(c1)CCC2	> 200 µM	1.62 µM	
Cc1cccc(NC(=O)Nc2ccc(F)cc2)n1	129 µM	> 200 µM	
Cc1c(CCO)c(=O)n2n1CCCC2	> 200 µM	> 200 µM	
COc1ccccc1/C=C1\SC(=S)N(/C=C2\C(=O)Oc3ccccc3C2=O)C1=O	> 200 µM	27.5 µM	
CN=C(NC#N)N(Cc1ccccc1)Cc1ccccc1	> 129 µM	> 100 µM	
O=C(O)CCSC(=O)Nc1cccc(F)c1			inactive
C1=C(N2CCOCC2)/C(=C2\SC(=Nc3ccccc3)C(=Nc3ccccc3)N2c2ccccc2)CC1	> 200 µM	138 µM	
COc1c(C)c(C/C=C(\C)CCCC(C)CCCC(C)CCCC(C)C)c(OC)c2ccccc12 (centres undefined)	> 200 µM	> 200 µM	
O=c1c2cc([N+](=O)[O-])ccc2[nH]n1Cc1ccccn1	> 200 µM	> 200 µM	
CC(C)=O.O=C([O-])C(F)(F)F.O=C([O-])C(F)(F)F.O=C([O-])C(F)(F)F.O=C([O-])C(F)(F)F.[Rh+2].[Rh+2]	> 200 µM	> 200 µM	
NC(=O)c1cc(-c2ccc(-n3ccnc3)cc2)n[nH]c1=O	> 200 µM	155 µM	
Cc1nc2c(nc1C)C(=O)C(Cl)=CC2=O			inactive
C[C@]12CCC(=O)C=C1CC[C@@H]1[C@@H]2[C@@H](O)C[C@@]2(C)[C@H]1CC[C@]2(O)C(=O)COC(=O)CCC(=O)O	> 200 µM	6.03 µM	
COC(=O)C1(C)CCCC2(C)c3cc(OC)ccc3C(=O)C(Cl)C12 (centres undefined)	> 200 µM	30.2 µM	
COc1ccccc1/C=C(/C(=O)c1ccccc1)c1ccccc1	> 8.71 µM	> 8.71 µM	
O=C(c1ccccc1)C(Nc1nc2nc(-c3ccccc3)c(-c3ccccc3)n2[nH]1)c1ccccc1 (centres undefined)	> 200 µM	27.5 µM	
O=P1(c2ccccc2)C(c2ccccc2)CCC1c1ccccc1 (centres undefined)	> 200 µM	85.1 µM	
COC12C(COC(N)=O)C3=C(C(=O)C(C)=C(N)C3=O)N1CC1C2N1C (centres undefined)	> 724 µM	0.417 µM	
O=C1CC(c2ccccc2)NCN1 (centres undefined)			inactive
Clc1cccc(C2SCc3nc4ccccc4n32)c1 (centres undefined)			inactive
CC#N.CC#N.COC(=O)[C@H]1CCC(=O)[N-]1.COC(=O)[C@H]1CCC(=O)[N-]1.COC(=O)[C@H]1CCC(=O)[N-]1.COC(=O)[C@H]1CCC(=O)[N-]1.[Rh+2].[Rh+2]	> 200 µM	> 200 µM	
COC1=C(Br)C(=O)c2nc(C)ccc2C1=O			inactive
